Results from patent publication US5180711A, “Combined treatment with GnRH antagonist and GnRH to control gonadotropin levels in mammals” (Applied Research Systems ARS Holding N.V., priority 1990, dated 1993).
Where a SMILES comes first, the peptide text is derived from it. [ ]: non-standard residue; d: D form. The star is where a group is joined. dPhe(4-Cl) = N[C@H](Cc1ccc(Cl)cc1)C(=O)O; d2Nal = N[C@H](Cc1ccc2ccccc2c1)C(=O)O; Lys(iPr) = CC(C)NCCCC[C@H](N)C(=O)O; d3Pal = N[C@H](Cc1cccnc1)C(=O)O; Nicotinoyl = O=C(c1cccnc1)*

How the values were obtained:
[1] = system: endogenous gonadotropin secretion (LH, FSH); experiment: Inhibition of endogenous gonadotropin secretion by Antide and response to pulsatile GnRH replacement in ovariectomized monkeys (Example 1); type: in vivo, cynomolgus monkeys; details: Antide-suppressed monkeys; GnRH 5 μg/pulse, 1 pulse/hour, from day 17; day after initiation
Experimental: Three long-term ovariectomized cynomolgus monkeys fitted with indwelling jugular vein canulae were utilized for this study. Daily blood samples were drawn under ketamine-induced anesthesia (10 mg/kg, I.M.), for 90 days. On study days 11-16 Antide (3 mg/kg, in propylene/glycol:water, 1:1) was administered via subcutaneous injection. GnRH replacement therapy (5 μg/pulse, 1 pulse/hour given over 1 min, via a Pulsamat infusion pump) was initiated on day 17 and continued for one week then withheld for one week, then reinitiated for one week in a 7 day on, 7 day off regimen for a total of four exposures.

[2] = system: ovulation; estradiol and progesterone concentrations; experiment: Ovulation induction by pulsatile GnRH replacement during Antide suppression of endogenous cycles (Example 2); type: in vivo, cynomolgus monkeys
Experimental: A second experiment was performed to establish that pulsatile GnRH replacement therapy would induce ovulation in the face of antagonist-induced suppression of endogenous cycles.
(§1) Normally cycling cynomolgus monkeys were studied in one of two regimens. Regimen A comprised a series of initial large loading doses of Antide (10 mg/kg, sc), with no further Antide administration. […] In each regimen GnRH replacement was initiated 4 days after the first Antide injection at a rate of 5 μg/pulse, with one 1 min pulse/hour. The amplitude was subsequently raised to 10 μg/pulse after approximately 21 days. Daily blood samples were drawn for later determination of estradiol, progesterone and Antide concentrations.

[3] = system: tonic gonadotropin (FSH/LH) levels; details: ovariectomized monkeys treated with Antide; cited from earlier work
[4] = Antide concentrations in daily blood samples (Example 2); type: in vivo, cynomolgus monkeys; details: regimen A: four daily injections of 10 mg/kg sc; test period >40 days
Experimental: as §1

Compound | gonadotropin concentrations during GnRH replacement therapy [1] | E2 response, ovulation and luteal P4 ([2]; regimen A, GnRH restarted at 10 μg/pulse) | E2 response to initial pulsatile GnRH replacement ([2]; regimen B, GnRH 5 μg/pulse) | E2 response, ovulation and luteal P4 ([2]; regimen B, GnRH increased to 10 μg/pulse) | gonadotropin response to a large i.v. bolus of GnRH [3] | concentration of Antide, always remaining above, throughout test period [4]
gonadotropin releasing hormone (QHWSYGLRPG; Gonadoliberin-1; UniProt P01148 24-33, looked up) [GnRH] | greater than 100 ng/ml | rapid and sustained elevation of E2 concentrations culminating in ovulation and normal luteal phase P4 (progesterone) concentrations | elevations of E2 to those characteristic of the late follicular phase | rapid rise in E2 concentrations to normal preovulatory levels culminating in ovulation with subsequent normal luteal P4 production | transient increase in gonadotropin levels which subsequently fell back to the inhibited state | 
CC(=O)N[C@H](Cc1ccc2ccccc2c1)C(=O)N[C@H](Cc1ccc(Cl)cc1)C(=O)N[C@H](Cc1cccnc1)C(=O)N[C@@H](CO)C(=O)N[C@@H](CCCCNC(=O)c1cccnc1)C(=O)N[C@H](CCCCNC(=O)c1cccnc1)C(=O)N[C@@H](CC(C)C)C(=O)N[C@@H](CCCCNC(C)C)C(=O)N1CCC[C@H]1C(=O)N[C@H](C)C(N)=O [Antide, N--Ac--D--2--Nal--D--pClPhe--D--3---Pal--Ser--NicLys--D--NicLys--Leu--ILys--Pro--D--Ala--NH2] (Ac-[d2Nal][dPhe(4-Cl)][d3Pal]SK(Nicotinoyl)[dK](Nicotinoyl)L[Lys(iPr)]P[dA]-NH2) |  |  |  |  |  | above 15 ng/ml
